≈ marks a conversion by molar mass, not a printed value. Where “and” joins values, the source holds several entries; their conditions need not be identical. Equal entries are not always repeated. Entries after “also recorded” stand apart in the source; their conditions may differ. Where two headings read alike, the source gives them in different places. Marks after values point to notes of the source that are not given here.
Experiments:
[1] = tested on: T. rubrum; experiment: MIC testing, modified CLSI M38-A2 for dermatophytes (Example 2); assay type: cell-based, Trichophyton rubrum; settings: for MIC50: lowest concentration to inhibit 50% of the strains tested, n = 20
[2] = tested on: T. rubrum; experiment: Checkerboard microdilution Compound 8 + fluconazole, FIC Index (Example 2); assay type: cell-based, Trichophyton rubrum; settings: Compound 8 in combination with fluconazole, one value per strain (MRL #)
Method: This example describes the in vitro activity of combinations of compounds according to the present invention and antifungal agents against clinical isolates of Trichophyton rubrum. Twenty clinical isolates Trichophyton rubrum, including 9 strains with elevated terbinafine MICs, taken from the culture collection of the Center for Medical Mycology, were tested.
(§1) MIC testing was performed according to the modification of the CLSI M38-A2 standard for dermatophytes developed at the Center (CLSI. Reference Method for Broth Dilution Antifungal Susceptibility Testing of Filamentous Fungi; Approved Standard-Second Edition. CLSI document M38-A2 [ISBN 1-56238-668-9]. CLSI, 940 West Valley Road, Suite 1400, Wayne, Pa. 19087-1898 USA, 2008; Ghannoum M A, et al. Intra- and Interlaboratory Study of a Method for Testing the Antifungal Susceptibilities of Dermatophytes. 2004 J Clin Microbiol 42:(7): 2977-2979). Compound 8 and fluconazole were tested in combination using a checkerboard microdilution method. The interaction between Compound 8 and fluconazole was determined by FIC Index, or Fractional Inhibitory Concentration Index, which assigns a numerical value to the interaction of the two antifungals.

[3] = tested on: M. canis; experiment: Checkerboard combination testing of compound 8 with antifungals, FIC (Example 1); assay type: cell-based, Microsporum canis; settings: Compound 8 in combination with itraconazole, N=5 isolates
[4] = tested on: T. rubrum, T. mentagrophytes and T. tonsurans strains; experiment: Checkerboard microdilution Compound 8 + fluconazole, all strains (Example 2); assay type: cell-based; settings: Compound 8 in combination with fluconazole
Method: as §1

[5] = tested on: T. tonsurans; experiment: Checkerboard combination testing of compound 8 with antifungals, FIC (Example 1); assay type: cell-based, Trichophyton tonsurans; settings: for Additivity # isolates / Additivity isolates (%): 0.5≦FIC≦1.0; for No Interaction # isolates: 1.0<FIC≦4.0; for Synergy # isolates / Synergy isolates (%): FIC<0.5
Method: (§2) This example describes the in vitro activity of combinations of compounds according to the present invention and antifungal agents against a collection of dermatophytic fungal pathogens. Antifungal susceptibility testing was adapted from the CLSI M38-A broth microdilution method for dermatophytes (NCCLS-M38-A2 2008). Combination testing was performed by checkerboard method (with compound 8 in combination with fluconazole, itraconazole or terbinafine). A total of 30 isolates of 5 different fungal species were tested in the combination test: 6 isolates each of Trichophyton tonsurans, Trichophyton rubrum, Epidermophyton floccosum, Trichophyton mentagrophytes and Microsporum canis. Clinical isolates were obtained by the Laboratory of Dr. M. Ghannoum at Case Western University.
(§3) Synergy was assessed using the fractional inhibitory concentration (FIC), an interaction coefficient, with the following definitions:
(§4) The fold reduction of the itraconazole minimum inhibitory concentration (MIC) was also evaluated.

[6] = tested on: panel of clinical isolates of 5 common dermatophytic fungi; experiment: Checkerboard combination testing, whole panel (Example 1); assay type: cell-based
Method: as §2
(§5) Synergy was assessed using the fractional inhibitory concentration (FIC), an interaction coefficient, with the following definitions: […]

[7] = tested on: E. floccosum; experiment: Checkerboard combination testing of compound 8 with antifungals, FIC (Example 1); assay type: cell-based, Epidermophyton floccosum; settings: for Additivity # isolates / Additivity isolates (%): 0.5≦FIC≦1.0
Method: as §2, §3, §4

[8] = tested on: T. mentagrophytes; experiment: Checkerboard microdilution Compound 8 + fluconazole, FIC Index (Example 2); assay type: cell-based; settings: Compound 8 in combination with fluconazole, one value per strain (MRL #)
Method: as §1

[9] = tested on: T. tonsurans; experiment: as above; assay type: cell-based; settings: Compound 8 in combination with fluconazole, one value per strain (MRL #)
Method: as §1

[10] = tested on: T. mentagrophytes; experiment: MIC testing, modified CLSI M38-A2 for dermatophytes (Example 2); assay type: cell-based; settings: for MIC50 / MIC90 / MIC Range: n = 5 strains
Method: as §1

[11] = tested on: T. tonsurans; experiment: as above; assay type: cell-based; settings: for MIC50 / MIC90 / MIC Range: n = 5 strains
Method: as §1

[12] = tested on: E. floccosum; experiment: Single agent MIC, broth microdilution adapted from CLSI M38-A (Example 1); assay type: cell-based; settings: Epidermophyton floccosum, range over clinical isolates, N=9, read-out: Cpd 8 MIC
Excerpt: (§6) A minimum inhibitory concentration (MICx) of a compound such as a HDAC inhibitor or an antifungal agent (or both) is the concentration that reduces growth of a fungus by X %, compared to the growth of the fungus in the absence of the compound.
as §2

[13] = tested on: T. mentagrophytes; experiment: as above; assay type: cell-based; settings: Trichophyton mentagrophytes, range over clinical isolates, N=10, read-out: Cpd 8 MIC
Excerpt: as §6, §2

[14] = tested on: M. canis; experiment: as above; assay type: cell-based; settings: Microsporum canis, range over clinical isolates, N=7, read-out: Cpd 8 MIC
Excerpt: as §6, §2

[15] = tested on: T. tonsurans; experiment: as above; assay type: cell-based; settings: Trichophyton tonsurans, range over clinical isolates, N=8, read-out: Cpd 8 MIC
Excerpt: as §6, §2

[16] = tested on: T. rubrum; experiment: as above; assay type: cell-based; settings: Trichophyton rubrum, range over clinical isolates, N=10, read-out: Cpd 8 MIC
Excerpt: as §6, §2

[17] = tested on: clinical isolates of Zygomycetes and molds; experiment: In vitro synergy with azoles; assay type: cell-based; settings: majority of clinical isolates
[18] = tested on: T. mentagrophytes; experiment: Checkerboard combination testing of compound 8 with antifungals, FIC (Example 1); assay type: cell-based, Trichophyton mentagrophytes; settings: n=6 isolates; for Additivity # isolates / Additivity isolates (%): 0.5≦FIC≦1.0; for No Interaction # isolates: 1.0<FIC≦4.0; for Synergy # isolates / Synergy isolates (%): FIC<0.5
Method: as §2, §5

[19] = tested on: broad panel of dermatophytic clinical isolates; experiment: Single agent MIC, whole panel (Example 1); assay type: cell-based; settings: range over all species and clinical isolates tested
Excerpt: as §6, §2

[20] = tested on: T. rubrum; experiment: Checkerboard combination testing of compound 8 with antifungals, FIC (Example 1); assay type: cell-based, Trichophyton rubrum; settings: n=6 isolates; for Additivity # isolates / Additivity isolates (%): 0.5≦FIC≦1.0; for No Interaction # isolates: 1.0<FIC≦4.0; for Synergy # isolates / Synergy isolates (%): FIC<0.5
Method: as §2, §5

[21] = tested on: M. canis; experiment: as above; assay type: cell-based, Microsporum canis
Method: as §2, §5

[22] = Trichophyton rubrum, read-out: MIC50
[23] = Trichophyton rubrum, n = 20 strains
[24] = Compound 8 in combination with fluconazole, n=6 isolates
[25] = Compound 8 in combination with itraconazole, N=5 isolates
[26] = one value per clinical isolate (Strain # 1-6)
[27] = Compound 8 in combination with fluconazole, 1.0<FIC≦4.0, n=6 isolates
[28] = Compound 8 in combination with fluconazole, FIC<0.5, n=6 isolates
[29] = Compound 8 in combination with itraconazole, n=6 isolates
[30] = Compound 8 in combination with itraconazole, FIC<0.5, n=6 isolates
[31] = Compound 8 in combination with fluconazole
[32] = Compound 8 in combination with itraconazole
[33] = Compound 8 in combination with fluconazole, 0.5≦FIC≦1.0, n=6 isolates

O=C(Cc1ccc(CCCCc2ccccc2)cc1)NO [Compound 8]
MIC50 [1, 22]: 1 µg/mL (≈ 3.53 µM)
MIC90 [1, 23]: 4 µg/mL (≈ 14.1 µM)
MIC50 [1]: 1 µg/mL (≈ 3.53 µM)
MIC Range ([1]; n = 20 strains): 0.5 to 4.0 µg/mL
Compound 8 MIC compared with the corresponding terbinafine MIC ([1]; nine strains with a terbinafine MIC≧4.0 μg/ml): lower than the corresponding terbinafine MIC for eight of nine strains
Interpretation from ODDS ([2]; strain MRL 476): No interaction
Interpretation from ODDS ([2]; strain MRL 477): Additive
Interpretation from ODDS ([2]; strain MRL 670): Synergistic
Interpretation from ODDS ([2]; strain MRL 9482): Addivtive
Additivity # isolates ([3]; 0.5≦FIC≦1.0): 0*
No Interaction isolates (%) ([3]; 1.0<FIC≦4.0): (80%)*
Synergy # isolates ([3]; FIC<0.5): 1
Synergy isolates (%) ([3]; FIC<0.5): (20%)*
Antagonism [4]: No antagonism was demonstrated
Synergism, % of the strains [4]: 23%
Additivity # isolates [5, 24]: 1
Additivity isolates (%) [5, 24]: (17%)
No Interaction # isolates [5, 24]: 0
Synergy # isolates [5, 24]: 5
Synergy isolates (%) [5, 24]: (83%)
Additivity # isolates [5, 25]: 4
Additivity isolates (%) [5, 25]: (80%)*
No Interaction # isolates [5, 25]: 0
Synergy # isolates [5, 25]: 1
Synergy isolates (%) [5, 25]: (20%)*
Fold Reduction of Itraconazole MIC by Cpd 8 [5, 26]: 2x and 4x
Synergy, % of the isolate combinations tested ([6]; Compound 8 with fluconazole, 30 isolate combinations): 33%
Synergy, number of isolates ([6]; Compound 8 with fluconazole, of 30 isolate combinations tested): 10
Synergy, % of the isolate combinations tested ([6]; Compound 8 with itraconazole, 28 isolate combinations): 54%
Synergy, number of isolates ([6]; Compound 8 with itraconazole, of 28 isolate combinations tested): 15
Antagonism ([6]; any of the Compound 8-azole combinations or clinical isolates): Antagonism was not observed
Additivity # isolates [7, 24]: 4
Additivity isolates (%) [7, 24]: (67%)
No Interaction # isolates [7, 27]: 2
No Interaction isolates (%) [7, 27]: (33%)
Synergy # isolates [7, 28]: 0
Additivity # isolates [7, 29]: 2
Additivity isolates (%) [7, 29]: (33%)
No Interaction # isolates ([7]; Compound 8 in combination with itraconazole, 1.0<FIC≦4.0, n=6 isolates): 0
Synergy # isolates [7, 30]: 4
Synergy isolates (%) [7, 30]: (67%)
Fold Reduction of Itraconazole MIC by Cpd 8 [7, 26]: 8x and 4x and 7.5x
Interpretation from ODDS ([8]; strain MRL 11256): Synergistic
Interpretation from ODDS ([8]; strain MRL 12511): Additive
Interpretation from ODDS ([8]; strain MRL 12680): No interaction
Interpretation from ODDS ([9]; strain MRL 10152): Additive
Interpretation from ODDS ([9]; strain MRL 10327): No interaction
Interpretation from ODDS ([9]; strain MRL 10328): Synergistic
MIC ([10]; Trichophyton mentagrophytes, drug alone, one value per strain (MRL # in c0), read-out: Individual MIC): 1 µg/mL
MIC50 ([10]; Trichophyton mentagrophytes): 1 µg/mL
MIC90 ([10]; Trichophyton mentagrophytes): 1 µg/mL
Antifungal activity as compared with fluconazole ([10]; all strains tested): more potent antifungal activity as compared with fluconazole
MIC Range [10]: 1.0 µg/mL
MIC ([11]; Trichophyton tonsurans, drug alone, one value per strain (MRL # in c0), read-out: Individual MIC): 0.12 µg/mL
MIC50 ([11]; Trichophyton tonsurans): 0.06 µg/mL
MIC90 ([11]; Trichophyton tonsurans): 0.06 µg/mL
Antifungal activity as compared with fluconazole ([11]; all strains tested): more potent antifungal activity as compared with fluconazole
MIC Range [11]: 0.06 to 0.12 µg/mL
MIC [12]: 0.5 to 1 µg/mL
MIC [13]: 0.12 to 2 µg/mL
MIC [14]: 0.12 to 2 µg/mL
MIC [15]: 0.02 to 0.25 µg/mL
MIC [16]: 0.06 to 0.25 µg/mL
In vitro interaction with azoles [17]: synergy
Additivity # isolates [18, 31]: 4
Additivity isolates (%) [18, 31]: (67%)
No Interaction # isolates [18, 31]: 0
Synergy # isolates [18, 31]: 2
Synergy isolates (%) [18, 31]: (33%)
Additivity # isolates [18, 32]: 1
Additivity isolates (%) [18, 32]: (17%)
No Interaction # isolates [18, 32]: 0
Synergy # isolates [18, 32]: 5
Synergy isolates (%) [18, 32]: (83%)
MIC [19]: 0.02 to 2 µg/mL
Additivity # isolates [20, 31]: 4
Additivity isolates (%) [20, 31]: (67%)
No Interaction # isolates [20, 31]: 0
Synergy # isolates [20, 31]: 2
Synergy isolates (%) [20, 31]: (33%)
Additivity # isolates [20, 32]: 2
Additivity isolates (%) [20, 32]: (33%)
No Interaction # isolates [20, 32]: 0
Synergy # isolates [20, 32]: 4
Synergy isolates (%) [20, 32]: (67%)
Additivity # isolates [21, 33]: 4
Additivity isolates (%) [21, 33]: (67%)
No Interaction # isolates [21, 27]: 1
No Interaction isolates (%) [21, 27]: (17%)
Synergy # isolates [21, 28]: 1
Synergy isolates (%) [21, 28]: (17%)
No Interaction # isolates ([21]; Compound 8 in combination with itraconazole, 1.0<FIC≦4.0, N=5 isolates): 4

CN(C/C=C/C#CC(C)(C)C)Cc1cccc2ccccc12 [Terbinafine, terbinafine]
MIC50 [1, 22]: 0.016 µg/mL (≈ 0.0549 µM)
MIC90 [1, 23]: 8 µg/mL (≈ 27.5 µM)
Potency (MIC) of terbinafine, in words ([6]; terbinafine alone, reason why synergy could not be determined): extremely low MIC; also recorded: † = synergy could not be determined because of the high potency (extremely low MIC) of terbinafine
MIC50 ([10]; Trichophyton mentagrophytes): 0.008 µg/mL
MIC90 ([10]; Trichophyton mentagrophytes): 0.016 µg/mL
MIC Range [10]: 0.004 to 0.016 µg/mL
MIC50 ([11]; Trichophyton tonsurans): 0.002 µg/mL
MIC90 ([11]; Trichophyton tonsurans): 0.002 µg/mL
MIC Range [11]: 0.001 to 0.016 µg/mL

Source: patent US20120046331A1, “Antifungal Agents and Uses Thereof” (priority 2010, published 2012)
